We go through two molecules from patent US9944740B2, “Sugar containing, amphiphilic copolymers” (REGENTS OF THE UNIVERSITY OF MINNESOTA, priority 2013, dated 2018).

Each structure is given as a SMILES string. Converted amounts (≈) assume the structure as drawn.

Data set [1] in a line: Phenytoin dissolution study (spray dried dispersions or crystalline API) in phosphate buffer pH 6.5 with simulated intestinal fluid powder, 37° C., HPLC. The class given is physicochemical. The conditions noted are these: crystalline phenytoin. As to the method:
(§1) Samples (either spray dried dispersions or crystalline API as received) were weighed into 2.0 mL conical microcentrifuge tubes in duplicate. Phosphate buffer solution (82 mM sodium chloride, 20 mM sodium phosphate dibasic, 47 mM potassium phosphate monobasic, 0.5 wt % simulated intestinal fluid powder, pH 6.5) at 37° C. was added in an amount that would produce a final concentration of drug of 1000 mg/L if all material was fully dissolved (e.g., 7.2 mg of spray dried dispersion consisting of 1.8 mg griseofulvin and 5.4 mg polymer was diluted with 1.8 mL buffer solution). Samples were vortexed 1 min and set in an isothermal aluminum sample holder set at 37° C. At each time point, samples were centrifuged 1 min at >13,000×g (g=gravitational force on earth), and a 50 μl aliquot was removed and diluted with 250 μl methanol. The samples were again vortexed 30 s and held at 37° C. until the next time point. Drug concentration in each aliquot was determined by reverse phase HPLC.
Probucol and phenytoin concentrations were quantified using a Agilent 1260 Infinity Quaternary HPLC equipped. The HPLC consisted of a reversed-phase EC-C18 column (Poroshell 120, 4.6×50 mm, 2.7 μm, Agilent, USA). The mobile phase was acetonitrile: water 96:4 for probucol and acetonitrile: water 40:60 for phenytoin, and the flow rate was 1.0 mL/min. A 10 μL aliquot of sample was injected, and the column effluent was detected at 241 nm for probucol (eluted at 2.90 min) and 225 nm for phenytoin (eluted at 1.40 min) with a UV detector (1260 Infinity Multiple Wavelength Detector, Agilent). The standard curve linearity was verified from 0.1 to 1000 μg/mL with an r^2 value of at least 0.999.
Two different drugs, probucol and phenytoin, were formulated at different weight percent, using the polymers disclosed herein (see Table 1 for polymer sample numbers). […]

Data set [2] can be described thus: Probucol dissolution study (spray dried dispersions or crystalline API) in phosphate buffer pH 6.5 with simulated intestinal fluid powder, 37° C., HPLC. It counts as physicochemical. The note with it: pH 6.5, fassif, thermodynamic from solid. The procedure: as §1
Probucol and phenytoin concentrations were quantified using a Agilent 1260 Infinity Quaternary HPLC equipped. […] A 10 μL aliquot of sample was injected, and the column effluent was detected at 241 nm for probucol (eluted at 2.90 min) and 225 nm for phenytoin (eluted at 1.40 min) with a UV detector (1260 Infinity Multiple Wavelength Detector, Agilent). […]

As to `O=C1NC(=O)C(c2ccccc2)(c2ccccc2)N1` [Phenytoin, phenytoin], the “Concentration (phenytoin dissolution control)” value in data set [1] (Time 0) was 0 ng/mL; in data set [1] (Time 4) it was 38000 ng/mL; in data set [1] (Time 10), 46000 ng/mL; in data set [1] (Time 20), 45000 ng/mL; in data set [1] (Time 40), 48000 ng/mL; in data set [1] (Time 90) it was 51000 ng/mL. For the same molecule, the “Concentration (phenytoin dissolution control)” value in data set [1] (Time 180) is 45000 ng/mL; in data set [1] (Time 360), 48000 ng/mL.

With `CC(C)(Sc1cc(C(C)(C)C)c(O)c(C(C)(C)C)c1)Sc1cc(C(C)(C)C)c(O)c(C(C)(C)C)c1` [probucol], the solubility in data set [2] is 4 µg/mL (≈ 7.74 µM).

In general, solubility refers to how much of the substance goes into solution per volume. The low end stands for a poorly soluble substance, the high end for a readily soluble substance.
